Data: US8722648B2, “Liquid pharmaceutical form of alkylphosphocholine and method for preparing same” (priority 2009, dated 2014)
Values after ≈ are worked out from the molar mass of the structure shown.

Assay: Solubility of hexadecylphosphocholine in co-solvent systems at 25° C.
Assay type: physicochemical
Details: aqueous with cosolvent or surfactant or cyclodextrin
From the text: The alkylphosphocholines are soluble in water, ethanol and methanol, but there are accurate bibliography data missing. […] For example, the solubility of alkylphosphocholines is sufficiency high in glycols and glycol ether. The improvement of alkylphosphocholines solubility is observed in propylene glycol-hexylene glycol-water mixtures as the solubility of alkylphosphocholines increases with increasing hexylene glycol concentration. The maximum is at 50% hexylene glycol level. […] The alkylphosphocholines solubility response is linear in the propylene glycol-concentration range 40÷60% in the co-solvent mixture. The addition of Transcutol P to the co-solvent mixture increased the solubility of alkylphosphocholines as a function of the concentration of Transcutol P, which may be due to a co-solvency effect. The functions of Transcutol P are simultaneously solubilizer and penetration enhancer to enable the active agent to cross the barrier of the stratum corneum.

solubility (hexylene glycol 22, propylene glycol 44, Transcutol P 2, water 32 % v/v): 153 mg/mL (≈ 375 mM)
solubility (co-solvent system (hexylene glycol/propylene glycol/water), hexylene glycol 22, propylene glycol 44, Transcutol P 0, water 34 % v/v): 138 mg/mL (≈ 339 mM)
solubility (co-solvent system (hexylene glycol/water), hexylene glycol 22, propylene glycol 0, Transcutol P 0, water 78 % v/v): 119 mg/mL (≈ 291 mM)
Compound: CCCCCCCCCCCCCCCCOP(=O)([O-])OCC[N+](C)(C)C [hexadecylphosphocholine]
